Reference: ChEMBL document CHEMBL1275339, “Anti-leishmanial and anti-trypanosomal activities of 1,4-dihydropyridines: In vitro evaluation and structure-activity relationship study” (Bioorg Med Chem, 2010)
pIC50: −log10 of the molar value.

What was measured:
Leishmania chagasi [1] = experiment: Antileishmanial activity against amastigotes of Leishmania chagasi MHOM/BR/1972/LD after 24 hrs by MTT assay; type: functional, organism-based
Leishmania chagasi [2] = experiment: Antileishmanial activity against promastigotes of Leishmania chagasi MHOM/BR/1972/LD after 18 hrs by MTT assay; type: functional, organism-based
[3] = Selectivity index, ratio of IC50 for rhesus monkey LLC-MK2 cells to IC50 for amastigotes of Leishmania chagasi MHOM/BR/1972/LD; type: toxicity, cell-based; conditions: read-out: Selectivity Index
Trypanosoma cruzi [4] = experiment: Antitrypanosomal activity against trypomastigotes of Trypanosoma cruzi infected in rhesus monkey LLC-MK2 cells after 48 hrs by MTT assay; type: functional, organism-based; conditions: LLC-MK2, 48 h
Leishmania amazonensis = experiment: Antileishmanial activity against promastigotes of Leishmania amazonensis WHO/BR/00/LT0016 after 18 hrs by MTT assay; type: functional, organism-based; conditions: WHO/BR/00/LT0016, 18 h
[5] = Selectivity index, ratio of IC50 for rhesus monkey LLC-MK2 cells to IC50 for trypomastigotes of Trypanosoma cruzi; type: toxicity, cell-based; conditions: read-out: Selectivity Index
LLC-MK2 = experiment: Cytotoxicity against rhesus monkey LLC-MK2 cells after 48 hrs by MTT assay; type: cell-based, Macaca mulatta
Leishmania major = experiment: Antileishmanial activity against promastigotes of Leishmania major MHOM/1L/80/Fredlin after 18 hrs by MTT assay; type: functional, organism-based
[6] = Cytotoxicity in BALB/c mouse erythrocytes assessed as hemolysis at 50 uM after 3 hrs; type: cell-based; conditions: erythrocyte
Leishmania braziliensis = experiment: Antileishmanial activity against promastigotes of Leishmania braziliensis MHO/BR/75/M2903 after 18 hrs by MTT assay; type: functional, organism-based; conditions: MHO/BR/75/M2903, 18 h
Trypanosoma cruzi [7] = experiment: Antitrypanosomal activity against epimastigotes of Trypanosoma cruzi; type: functional, organism-based
[8] = Leishmania chagasi, MHOM/BR/1972/LD, 24 h

Row | Compound | pIC50 (Trypanosoma cruzi [4]) | pIC50 (Trypanosoma cruzi [7]) | pIC50 (Leishmania chagasi [1]; [8]) | pIC50 (Leishmania chagasi [2]) | selectivity ratio [3] | pIC50 (Leishmania amazonensis) | selectivity ratio [5] | pIC50 (LLC-MK2; Macaca mulatta, LLC-MK2, 48 h) | pIC50 (Leishmania major) | Activity [6] | pIC50 (Leishmania braziliensis) | pIC50 (Leishmania chagasi [1]) | pIC50 (LLC-MK2; llc-mk2)
1 | CCOC(=O)C1=C(COCCN)NC(C)=C(C(=O)OC)C1c1ccccc1Cl (centres undefined) [AMLODIPINE] | 5.09 | – | 5.27 | 5.58 | 13.2 | 5.53 | 8.77 | 4.15 | 5.47 | Non-toxic | 5.50 | – | –
2 | CC1=C(C(=O)OC(C)C)C(c2cccc([N+](=O)[O-])c2)C(C(=O)OC2CN(C(c3ccccc3)c3ccccc3)C2)=C(N)N1 (centres undefined) [AZELNIDIPINE] | 5.54 | – | – | 4.48 | – | 4.69 | 11.5 | 4.48 | 4.77 | Non-toxic | 4.86 | – | –
3 | COC(=O)C1=C(C)NC(C)=C(C(=O)OC)C1c1ccccc1[N+](=O)[O-] [NIFEDIPINE] | 3.99 | – | 3.75 | 3.83 | 4.21 | 3.93 | 5.78 | 3.23 | 3.74 | Non-toxic | 4.02 | – | –
4 | N=C(N)c1ccc(OCCCCCOc2ccc(C(=N)N)cc2)cc1 [PENTAMIDINE] | – | – | – | 5.95 | – | 6.31 | – | 4.59 | 6.33 | Non-toxic | 6.82 | – | –
5 | MEGLUMINE ANTIMONATE | – | – | – | – | – | – | – | – | – | Non-toxic | – | 4.08 | < 2.86

Further lines, with some results ahead:

Row | pIC50 (Trypanosoma cruzi [4]) | pIC50 (Trypanosoma cruzi [7]) | Compound | pIC50 (Leishmania chagasi [1]; [8]) | pIC50 (Leishmania chagasi [2]) | selectivity ratio [3] | pIC50 (Leishmania amazonensis) | selectivity ratio [5] | pIC50 (LLC-MK2; Macaca mulatta, LLC-MK2, 48 h) | pIC50 (Leishmania major) | Activity [6] | pIC50 (Leishmania braziliensis) | pIC50 (Leishmania chagasi [1]) | pIC50 (LLC-MK2; llc-mk2)
6 | 3.76 | – | O=C(Cn1ccnc1[N+](=O)[O-])NCc1ccccc1 [BENZNIDAZOLE] | – | – | – | – | – | < 2.86 | – | Non-toxic | – | – | –
7 | 5.25 | – | COCCOC(=O)C1=C(C)NC(C)=C(C(=O)OC/C=C/c2ccccc2)C1c1cccc([N+](=O)[O-])c1 (centres undefined) [CILNIDIPINE] | 4.55 | 4.48 | 7.79 | 3.96 | 39.4 | 3.65 | 4.67 | Non-toxic | 4.82 | – | –
8 | – | 4.68 | COC(=O)C1=C(C)NC(C)=C(C(=O)OC(C)C)C1c1cccc2nonc12 (centres undefined) [ISRADIPINE] | – | – | – | – | – | – | – | Non-toxic | – | – | –
9 | – | 4.47 | CCOC(=O)C1=C(C)NC(C)=C(C(=O)OCC)C1c1ccccc1/C=C/C(=O)OC(C)(C)C [LACIDIPINE] | – | – | – | – | – | – | – | Non-toxic | – | – | –
10 | 5.07 | – | COC(=O)C1=C(C)NC(C)=C(C(=O)OC(C)(C)CN(C)CCC(c2ccccc2)c2ccccc2)C1c1cccc([N+](=O)[O-])c1 (centres undefined) [LERCANIDIPINE] | 4.98 | 4.72 | 42 | 4.77 | 51.6 | 3.36 | 4.94 | Non-toxic | 4.99 | – | –
11 | 4.98 | – | COC(=O)C1=C(C)NC(C)=C(C(=O)OCCN(C)Cc2ccccc2)C1c1cccc([N+](=O)[O-])c1 (centres undefined) [NICARDIPINE] | 4.66 | 4.45 | 3.25 | 4.58 | 6.76 | 4.15 | 4.66 | Non-toxic | 4.72 | – | –
12 | 4.49 | – | COCCOC(=O)C1=C(C)NC(C)=C(C(=O)OC(C)C)C1c1cccc([N+](=O)[O-])c1 (centres undefined) [NIMODIPINE] | 4.67 | 4.08 | 4.45 | 3.89 | 2.98 | 4.02 | 4.51 | Non-toxic | 4.37 | – | –
13 | 4.57 | – | CCOC(=O)C1=C(C)NC(C)=C(C(=O)OC)C1c1cccc([N+](=O)[O-])c1 (centres undefined) [NITRENDIPINE] | 4.36 | 4.19 | 3.14 | 4.42 | 5.12 | 3.86 | 4.48 | Non-toxic | 4.41 | – | –
